Data on four compounds can be found in BindingDB's records for doi:10.1016/j.bmcl.2005.04.021 (Novartis Institutes For Biomedical Research, 2005).

This assay addresses T1, Adenosine receptor A2b (Homo sapiens, UniProt P29275).
T1 sequence (P29275 whole entry): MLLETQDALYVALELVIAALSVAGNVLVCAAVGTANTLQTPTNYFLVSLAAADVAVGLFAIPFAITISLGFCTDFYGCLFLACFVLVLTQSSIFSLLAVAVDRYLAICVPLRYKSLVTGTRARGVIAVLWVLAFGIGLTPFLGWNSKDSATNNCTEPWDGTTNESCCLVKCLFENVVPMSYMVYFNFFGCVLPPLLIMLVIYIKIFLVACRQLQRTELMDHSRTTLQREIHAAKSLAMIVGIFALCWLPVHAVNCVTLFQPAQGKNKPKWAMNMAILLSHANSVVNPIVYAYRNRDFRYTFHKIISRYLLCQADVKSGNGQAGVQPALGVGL
The assay is described as follows: Inhibition of luciferase production elicited by NECA by compound in CHO cells transfected with human adenosine A2b receptor and a luciferase expressing reporter plasmid in a reporter gene assay. A general note: In a reporter assay the amount or activity of a reporter protein is the signal.
Consider `N#Cc1cccc(-c2nc(Nc3cccnc3)sc2-n2cncn2)c1` [3-[2-(Pyridin-3-ylamino)-5-[1,2,4]triazol-1-yl-thiazol-4-yl]-benzonitrile], for which the KB was 86 nM.
Take `N#Cc1cccc(-c2nc(Nc3cccnc3)sc2-n2ccnc2)c1` [3-[5-Imidazol-1-yl-2-(pyridin-3-ylamino)-thiazol-4-yl]-benzonitrile]: the KB amounted to 92 nM.
The compound `N#Cc1cccc(-c2nc(Nc3ccncc3)sc2-n2cncn2)c1` [3-[2-(Pyridin-4-ylamino)-5-[1,2,4]triazol-1-yl-thiazol-4-yl]-benzonitrile] showed a KB of 62 nM.
In the case of `N#Cc1cccc(-c2nc(Nc3ccccn3)sc2-n2cncn2)c1` [3-[2-(Pyridin-2-ylamino)-5-[1,2,4]triazol-1-yl-thiazol-4-yl]-benzonitrile] it was 53 nM.
